# Source: US20050109704A1, “Potable water delivery system with disinfection and residual discharge unit and method” (Pure H2O Bio-Technologies, Inc., priority 2003, published 2005)
# Values joined by “and” are separate entries in the source; they are usually repeats but may differ in a detail not shown here. Equal values may be shown once.
# How the values were obtained:
# [1] = system: E. coli; test: Iodine Disinfection of E. coli; assay type: cell-based, Escherichia coli; settings: ambient (˜23° C.); for Raw counts, Average / Raw counts, Treated Rep.: undiluted/10 mL analyzed
# Description: (§1) At CT values of 50, the Log 10 reductions were greater than 8.0. CT is a common measurement unit referring to concentration in parts per million multiplied by time (in minutes). CFU is known as colony forming units per milliliter. […] See references: Block, S. S., 1977. Disinfection, Sterilization and Preservation. Lea & Febiger, Philadelphia. 2nd edition.
# [2] = system: E. faecalis; test: Iodine Disinfection of E. faecalis; assay type: cell-based, Enterococcus faecalis; settings: ambient (˜23° C.)
# Description: as §1
# [3] = system: P. aeruginosa; test: Iodine Disinfection of P. aeruginosa; assay type: cell-based, Pseudomonas aeruginosa; settings: ambient (˜23° C.); for Raw counts, Average / Raw counts, Treated Rep.: undiluted/10 mL analyzed
# Description: as §1
# [4] = system: Escherichia coli, Pseudomonas aeruginosa and, Enterococcus faecalis; test: Iodine disinfection of bacteria, summary by CT value; assay type: cell-based; settings: CT values of 50 (ppm x min)
# Description: as §1
# [5] = system: waterborne microbial contamination; settings: 3-4 ppm for 12 min at 24° C. (CT value of about 48); cited from earlier work
# [6] = 5 mg/L 5 min, undiluted/10 mL analyzed
# [7] = 5 mg/L 10 min, undiluted/10 mL analyzed
# [8] = 15 mg/L 5 min, undiluted/10 mL analyzed
structure (smiles),measurement,setting,value
II,Log10/mL,[1]; 5 mg/L 5 min,1.2 Log10/mL
same,Log10 removal,[1]; 5 mg/L 5 min,5.7 Log10
same,"cfu/mL, Average",[1]; 5 mg/L 5 min,1.7 × 10^1 cfu/mL
same,"Raw counts, Average",[1]; 5 mg/L 5 min,175
same,"Raw counts, Treated Rep.",[1]; 5 mg/L 5 min,171 and 168 and 185
same,Log10/mL,[1]; 5 mg/L 10 min,<−1.0 Log10/mL
same,Log10 removal,[1]; 5 mg/L 10 min,>8.0 Log10
same,"cfu/mL, Average",[1]; 5 mg/L 10 min,<0.1 cfu/mL
same,"Raw counts, Average",[1]; 5 mg/L 10 min,0
same,"Raw counts, Treated Rep.",[1]; 5 mg/L 10 min,0
same,Log10/mL,[1]; 5 mg/L 15 min,<−1.0 Log10/mL
same,Log10 removal,[1]; 5 mg/L 15 min,>8.0 Log10
same,"cfu/mL, Average",[1]; 5 mg/L 15 min,<0.1 cfu/mL
same,"Raw counts, Average",[1]; 5 mg/L 15 min,0
same,"Raw counts, Treated Rep.",[1]; 5 mg/L 15 min,0
same,Log10/mL,[1]; 15 mg/L 5 min,<−1.0 Log10/mL
same,Log10 removal,[1]; 15 mg/L 5 min,>8.0 Log10
same,"cfu/mL, Average",[1]; 15 mg/L 5 min,<0.1 cfu/mL
same,"Raw counts, Average",[1]; 15 mg/L 5 min,0
same,"Raw counts, Treated Rep.",[1]; 15 mg/L 5 min,0
same,Log10/mL,[2]; 5 mg/L 5 min,0.6 Log10/mL
same,Log10 removal,[2]; 5 mg/L 5 min,6.2 Log10
same,"cfu/mL, Average",[2]; 5 mg/L 5 min,3.9 × 10^0 cfu/mL
same,"Raw counts, Average",[2]; [6],39
same,"Raw counts, Treated Rep.",[2]; [6],49 and 38 and 31
same,Log10/mL,[2]; 5 mg/L 10 min,<−1.0 Log10/mL
same,Log10 removal,[2]; 5 mg/L 10 min,>7.8 Log10
same,"cfu/mL, Average",[2]; 5 mg/L 10 min,<0.1 cfu/mL
same,"Raw counts, Average",[2]; [7],0
same,"Raw counts, Treated Rep.",[2]; [7],0
same,Log10/mL,[2]; 5 mg/L 15 min,<−1.0 Log10/mL
same,Log10 removal,[2]; 5 mg/L 15 min,>7.8 Log10
same,"Raw counts, Average",[2]; 5 mg/L 15 min,0
same,"Raw counts, Treated Rep.",[2]; 5 mg/L 15 min,0
same,"cfu/mL, Average",[2]; 5 mg/L 15 min,<0.1 cfu/mL
same,Log10/mL,[2]; 15 mg/L 5 min,<−1.0 Log10/mL
same,Log10 removal,[2]; 15 mg/L 5 min,>7.8 Log10
same,"cfu/mL, Average",[2]; 15 mg/L 5 min,<0.1 cfu/mL
same,"Raw counts, Average",[2]; [8],0
same,"Raw counts, Treated Rep.",[2]; [8],0
same,Log10/mL,[3]; 5 mg/L 5 min,1.2 Log10/mL
same,Log10 removal,[3]; 5 mg/L 5 min,5.7 Log10
same,"cfu/mL, Average",[3]; 5 mg/L 5 min,1.7 × 10^1 cfu/mL
same,"Raw counts, Average",[3]; 5 mg/L 5 min,175
same,"Raw counts, Treated Rep.",[3]; 5 mg/L 5 min,171 and 168 and 185
same,Log10/mL,[3]; 5 mg/L 10 min,<−1.0 Log10/mL
same,Log10 removal,[3]; 5 mg/L 10 min,>7.9 Log10
same,"cfu/mL, Average",[3]; 5 mg/L 10 min,<0.1 cfu/mL
same,"Raw counts, Average",[3]; 5 mg/L 10 min,0
same,"Raw counts, Treated Rep.",[3]; 5 mg/L 10 min,0
same,Log10/mL,[3]; 5 mg/L 15 min,<−1.0 Log10/mL
same,Log10 removal,[3]; 5 mg/L 15 min,>7.9 Log10
same,"cfu/mL, Average",[3]; 5 mg/L 15 min,<0.1 cfu/mL
same,"Raw counts, Average",[3]; 5 mg/L 15 min,0
same,"Raw counts, Treated Rep.",[3]; 5 mg/L 15 min,0
same,Log10/mL,[3]; 15 mg/L 5 min,<−1.0 Log10/mL
same,Log10 removal,[3]; 15 mg/L 5 min,>7.9 Log10
same,"cfu/mL, Average",[3]; 15 mg/L 5 min,<0.1 cfu/mL
same,"Raw counts, Average",[3]; 15 mg/L 5 min,0
same,"Raw counts, Treated Rep.",[3]; 15 mg/L 5 min,0
same,Log 10 reductions,[4],greater than 8.0 Log 10
same,waterborne microbial contamination reduced,[5],≥ 7 logs
